We go through 20 compounds from patent US11707462B2, “Checkpoint kinase 1 (CHK1) inhibitors and uses thereof” (Boundless Bio, Inc., priority 2021, dated 2023).

Some results are limits rather than exact numbers.

Assay [1] deals with T1, Full-length human Chk1 protein (Homo sapiens, UniProt O14757).
T1 construct: purchased Carna Biosciences, Inc. 02-117
T1 sequence (O14757 1-476): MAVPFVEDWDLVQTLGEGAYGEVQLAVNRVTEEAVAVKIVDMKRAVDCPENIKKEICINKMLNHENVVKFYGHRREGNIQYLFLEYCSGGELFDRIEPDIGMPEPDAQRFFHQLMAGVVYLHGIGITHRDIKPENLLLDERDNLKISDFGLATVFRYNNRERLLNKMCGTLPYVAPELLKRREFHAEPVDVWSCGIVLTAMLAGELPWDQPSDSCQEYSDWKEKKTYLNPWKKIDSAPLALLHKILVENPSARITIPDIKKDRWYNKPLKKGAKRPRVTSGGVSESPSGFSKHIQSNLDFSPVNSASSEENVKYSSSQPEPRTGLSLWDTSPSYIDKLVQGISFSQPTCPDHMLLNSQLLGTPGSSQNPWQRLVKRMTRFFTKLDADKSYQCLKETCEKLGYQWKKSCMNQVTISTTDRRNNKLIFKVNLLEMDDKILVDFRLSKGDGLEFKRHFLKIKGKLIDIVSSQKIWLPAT
The experiment in a line: Kinase HTRF biochemical assay (HTRF KinEASE), Chk1 enzyme activity. Conditions: full-length human Chk1, ATP 1 mM, 60 minutes at room temperature. The essentials:
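Full-length human Chk1 (0.012 ng/μL) in buffer with 5 mM MgCl2 and 1 mM DTT, preincubated with compound 10 min at room temperature; reaction with 120 nM biotinylated STK substrate 1 and 1 mM ATP for 60 min at room temperature. HTRF detection via cryptate antibody/streptavidin-XL665; IC50 from 10-point duplicate curves.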
In general terms: TR-FRET usually uses a lanthanide donor and a delayed reading to cut background.

For the next assay, the system named is p-CHK1 (Ser345). The experiment in a line: AlphaLISA SureFire Ultra p-CHK1 (Ser345) cellular assay in HT29 cells. It counts as cell-based. Conditions: Homo sapiens, HT-29, 16 h at 37° C. As for the experimental part:
Example B: AlphaLisa Cellular Assay
Compound activity in cells was measured using an AlphaLISA® SureFire® Ultra™ p-CHK1 (Ser345) assay (Perkin Elmer, catalog no. ALSU-PCHK1-A10K). HT29 cells were cultured in McCoy 5A medium with 10% FBS and 1% penicillin-streptomycin and seeded to 96-well plates (Corning, catalog no. 3599). Compounds were serially diluted in DMSO over a 10-point dose range with 3-fold dilution and to each well containing cells was added compound solution. Plates were centrifuged at 1000 rpm for 30 seconds. Plates were incubated at 37° C. for 16 h. Supernatant was removed by flicking the plate against a paper towel. Wells were washed once with PBS solution. To each well was added freshly prepared lysis buffer and plates were agitated on a plate shaker at 400 rpm for 30 min. The 96-well cell plates were centrifuged at 1500 rpm for 1 minute. From each well was transferred 10 μL of the lysates to a 384-well Optiplate™ (Perkin Elmer, catalog no. 6007290). To each well was added Acceptor Mix (5 μL) and the plates were sealed and wrapped in foil. Plates were agitated on a plate shaker for 2 minutes, then incubated at room temperature for 1 h. To each well was added Donor Mix (5 μL) and the plates were sealed and wrapped in foil. Plates were agitated on a plate shaker for 2 minutes, then incubated at room temperature for 1 h. AlphaLisa signal was read on an EnVision multimode plate reader (Perkin Elmer). Data were fit to dose-response curves using XLfit (IDBS, Surrey, UK) or Prism (GraphPad Software, La Jolla, Calif., US) to calculate IC50 values for each compound tested.
On the technique in general: Alpha assays give light when donor and acceptor beads are brought close together.

As for `Cc1cc(O[C@@H]2CC[C@H](N)C2)c(-c2cc(Nc3cnc(C#N)cn3)n[nH]2)nc1C` [Example 3-48, 5-((5-(3-(((1R,3S)-3-aminocyclopentyl)oxy)-5,6-dimethylpyridin-2-yl)-1H-pyrazol-3-yl)amino)pyrazine-2-carbonitrile], the IC50 (commonly the concentration needed to halve the response being measured) in assay [1] was ≤ 10 nM; in the assay with p-CHK1 (Ser345), ≤ 50 nM.
As for `Cc1ccc(O[C@H]2CC[C@H](N)CC2)c(-c2cc(Nc3cnc(C#N)cn3)n[nH]2)n1` [Example 1-56, 5-((5-(3-(((1r,4r)-4-aminocyclohexyl)oxy)-6-methylpyridin-2-yl)-1H-pyrazol-3-yl)amino)pyrazine-2-carbonitrile], the IC50 in assay [1] is ≤ 10 nM; with p-CHK1 (Ser345), 100 to 500 nM.
For `N#Cc1cnc(Nc2cc(-c3ccccc3O[C@H]3C[C@H](N)C3)[nH]n2)cn1` [Example 1-9, 5-((5-(2-((1r,3r)-3-aminocyclobutoxy)phenyl)-1H-pyrazol-3-yl)amino)pyrazine-2-carbonitrile] the same measures were 10 to 100 nM and 100 to 500 nM.
In the case of `N#Cc1cnc(Nc2cc(-c3c(OCC4CC4)cccc3O[C@H]3C[C@H](N)C3)[nH]n2)cn1` [Example 1-32, 5-((5-(2-((1r,3r)-3-aminocyclobutoxy)-6-(cyclopropylmethoxy)phenyl)-1H-pyrazol-3-yl)amino)pyrazine-2-carbonitrile], the IC50 in assay [1] was 10 to 100 nM; with p-CHK1 (Ser345), 500 to 1000 nM.
For `CN[C@@H]1CC[C@@H](Oc2ccc(C)nc2-c2cc(Nc3cnc(C#N)cn3)n[nH]2)C1` [Example 3-45, 5-((5-(6-methyl-3-(((1R,3R)-3-(methylamino)cyclopentyl)oxy)pyridin-2-yl)-1H-pyrazol-3-yl)amino)pyrazine-2-carbonitrile], the values for the IC50 (in assay [1]; with p-CHK1 (Ser345)) were ≤ 10 nM and ≤ 50 nM, respectively.
For `N#Cc1cnc(Nc2cc(-c3c(F)cccc3O[C@@H]3CC[C@@H](N)C3)[nH]n2)cn1` [Example 1-44, 5-((5-(2-(((1R,3R)-3-aminocyclopentyl)oxy)-6-fluorophenyl)-1H-pyrazol-3-yl)amino)pyrazine-2-carbonitrile] the same measures were ≤ 10 nM and ≤ 50 nM.
With `COc1c(Cl)ccc(O[C@@H]2CC[C@H](N)C2)c1-c1cc(Nc2cnc(C#N)cn2)n[nH]1` [Example 4-2, 5-((5-(6-(((1R,3S)-3-aminocyclopentyl)oxy)-3-chloro-2-methoxyphenyl)-1H-pyrazol-3-yl)amino)pyrazine-2-carbonitrile], the IC50 in assay [1] lay within 10 to 100 nM; in the assay on p-CHK1 (Ser345), 500 to 1000 nM.
Take `COc1cc(F)cc(O[C@H]2C[C@H](N)C2)c1-c1cc(Nc2cnc(C#N)cn2)n[nH]1` [Example 1-14, 5-((5-(2-((1r,3r)-3-aminocyclobutoxy)-4-fluoro-6-methoxyphenyl)-1H-pyrazol-3-yl)amino)pyrazine-2-carbonitrile]: the IC50 in assay [1] was ≤ 10 nM; with p-CHK1 (Ser345), ≤ 50 nM.
`Cc1cc(F)c(-c2cc(Nc3cnc(C#N)cn3)n[nH]2)c(O[C@@H]2CC[C@@H](N)C2)c1` [Example 5-1, 5-((5-(2-(((1R,3R)-3-aminocyclopentyl)oxy)-6-fluoro-4-methylphenyl)-1H-pyrazol-3-yl)amino)pyrazine-2-carbonitrile]: the IC50 is ≤ 10 nM in assay [1] and ≤ 50 nM with p-CHK1 (Ser345).
For `CN[C@H]1C[C@H](Oc2ccc(C)nc2-c2cc(Nc3cnc(C#N)cn3)n[nH]2)C1` [Example 1-61, 5-((5-(6-methyl-3-((1r,3r)-3-(methylamino)cyclobutoxy)pyridin-2-yl)-1H-pyrazol-3-yl)amino)pyrazine-2-carbonitrile], the IC50 in assay [1] is 10 to 100 nM; in the assay with p-CHK1 (Ser345), 100 to 500 nM.
Regarding `N#Cc1cnc(Nc2cc(-c3ncccc3O[C@H]3C[C@H](N)C3)[nH]n2)cn1` [Example 1-55, 5-((5-(3-((1r,3r)-3-aminocyclobutoxy)pyridin-2-yl)-1H-pyrazol-3-yl)amino)pyrazine-2-carbonitrile], the IC50 in assay [1] fell in the range of 10 to 100 nM; with p-CHK1 (Ser345), 500 to 1000 nM.
For `N#Cc1cnc(Nc2cc(-c3cccc(Cl)c3O[C@@H]3CC[C@H](N)C3)[nH]n2)cn1` [Example 3-14, 5-((5-(2-(((1R,3S)-3-aminocyclopentyl)oxy)-3-chlorophenyl)-1H-pyrazol-3-yl)amino)pyrazine-2-carbonitrile] the same measures were 500 to 1000 nM and > 1000 nM.
`CN[C@@H]1CC[C@@H](Oc2ccc(F)c(F)c2-c2cc(Nc3cnc(C#N)cn3)n[nH]2)C1` [Example 3-1, 5-((5-(2,3-difluoro-6-(((1R,3R)-3-(methylamino)cyclopentyl)oxy)phenyl)-1H-pyrazol-3-yl)amino)pyrazine-2-carbonitrile]: the IC50 in assay [1] is 10 to 100 nM; with p-CHK1 (Ser345), 100 to 500 nM.
As for `COc1cc(Cl)cc(O[C@@H]2CC[C@H](N)C2)c1-c1cc(Nc2cnc(C#N)cn2)n[nH]1` [Example 1-29, 5-((5-(2-(((1R,3S)-3-aminocyclopentyl)oxy)-4-chloro-6-methoxyphenyl)-1H-pyrazol-3-yl)amino)pyrazine-2-carbonitrile], the IC50 in assay [1] was ≤ 10 nM; in the assay with p-CHK1 (Ser345), 100 to 500 nM.
For `CN[C@H]1C[C@H](Oc2cccc(OC)c2-c2cc(Nc3cnc(C#N)cn3)n[nH]2)C1` [Example 1-16, 5-((5-(2-methoxy-6-((1r,3r)-3-(methylamino)cyclobutoxy)phenyl)-1H-pyrazol-3-yl)amino)pyrazine-2-carbonitrile], the IC50 in assay [1] is 10 to 100 nM; in the assay on p-CHK1 (Ser345), ≤ 50 nM.
As to `Cc1ccc(O[C@@H]2CC[C@@H](N)C2)c(-c2cc(Nc3cnc(C#N)cn3)n[nH]2)n1` [Example 1-60, 5-((5-(3-(((1R,3R)-3-aminocyclopentyl)oxy)-6-methylpyridin-2-yl)-1H-pyrazol-3-yl)amino)pyrazine-2-carbonitrile], the IC50 in assay [1] was ≤ 10 nM; in the assay on p-CHK1 (Ser345), ≤ 50 nM.
With `COc1c(F)ccc(O[C@@H]2CC[C@H](N)C2)c1-c1cc(Nc2cnc(C#N)cn2)n[nH]1` [Example 1-26, 5-((5-(6-(((1R,3S)-3-aminocyclopentyl)oxy)-3-fluoro-2-methoxyphenyl)-1H-pyrazol-3-yl)amino)pyrazine-2-carbonitrile], the figures for the IC50 (in assay [1]; in the assay on p-CHK1 (Ser345)) were 10 to 100 nM and 50 to 100 nM, respectively.
Take `COc1cccc(O[C@H]2CC[C@@H](N)CC2)c1-c1cc(Nc2cnc(C#N)cn2)n[nH]1` [Example 1-11, 5-((5-(2-(((1s,4s)-4-aminocyclohexyl)oxy)-6-methoxyphenyl)-1H-pyrazol-3-yl)amino)pyrazine-2-carbonitrile]: the IC50 in assay [1] lay in the range of 10 to 100 nM; with p-CHK1 (Ser345) it was 100 to 500 nM.
As to `N#Cc1cnc(Nc2cc(-c3c(O[C@@H]4CC[C@@H](N)C4)ccc(F)c3F)[nH]n2)cn1` [Example 3-28, 5-((5-(6-(((1R,3R)-3-aminocyclopentyl)oxy)-2,3-difluorophenyl)-1H-pyrazol-3-yl)amino)pyrazine-2-carbonitrile], the IC50 in assay [1] was ≤ 10 nM; in the assay on p-CHK1 (Ser345), 100 to 500 nM.
In the case of `CN[C@H]1C[C@H](Oc2cccc(F)c2-c2cc(Nc3cnc(C#N)cn3)n[nH]2)C1` [Example 2-5, 5-((5-(2-fluoro-6-((1r,3r)-3-(methylamino)cyclobutoxy)phenyl)-1H-pyrazol-3-yl)amino)pyrazine-2-carbonitrile], the IC50 was in the range of 10 to 100 nM in assay [1] and 100 to 500 nM in the assay on p-CHK1 (Ser345).
